These results are taken from patent publication EP0186275A2, “2-Substituted amino-4(1H)-pyrimidone derivatives, their production, and medical compositions containing them” (YAMANOUCHI PHARMACEUTICAL CO. LTD., priority 1984, dated 1986).

In data set [1] the target is T1, histamine H2-receptor (Cavia porcellus, UniProt P47747).
T1 construct: The atrium isolated from quinea-pigs was mounted in an organ bath; from tissue; host or cells: isolated guinea pig atrium
Kind of data set: H2-Blocking activity (isolated guinea pig atrium, chronotropic response to histamine). To be noted: isolated guinea pig atrium; test drugs 30 min. before 5 x 10^-6M histamine; dose producing 50% blockade of chronotropic response; read-out: 1)H2-bloc-kade guinea pig atrium ED50. The data set is classed as cell-based. As for the experimental part:
In addition, the experiments were performed using a known compound, TZU-0460, i. e., N-[3-(3-(1-piperi- dinylmethyl)phenoxy]propyl]acetoxyacetamide hydrochloride shown by the following formula [drawing 9] HC1 disclosed in European Patent No. 24,510. • 1. Experimental procedure • 1) H2-Blocking activity:
The atrium isolated from quinea-pigs was mounted in an organ bath containing Krebs-Henseleit solution gassed with 95% 02 and 5% C02 at 37°C. The spontaneous movement of the atrium was recorded through a strain gauge (Nihon Koden, SB-1T) on a polygraph (Nihon Koden, RM-6200). The tissue was exposed to test drugs 30 min. before treatment with 5 x 10-^6M histamine. The dose of test drugs producing 50%blockade of chronotropic response to histamine was obtained from each preparation.

Data set [2] relates to Male Wistar rats. Kind of data set: Gastric secretion inhibiting activity (pylorus-ligated rat, 4hr. shay rat). Format: in vivo. As for the experimental part: 2) Gastric secretion inhibiting activity: Male Wistar rats (about 200 g) were fasted but allowed free access to water for 24 hours prior to the experiment. The pylorus was ligated after abdominal midline incision under ether anesthesia. Four hours later, the animals were killed for the collection of gastric juice. The test compounds were given p.o. 1 hour before the pylorus ligation. Gastric juice (0.5 ml) was titrated against 0.05 N NaOH up to pH 7.0 to determine acid concentration using an automatic titrator (Hiranuma Sangyo Co., Comtite 7). The total acid output was calculated as the product of gastric volume by acid concentration.

For data set [3], the system named is Male Wistar rats. Kind of data set: Gastric cytoprotection (ethanol ulcer rat). The data set is classed as in vivo. As for the experimental part:
3) Gastric cytoprotection: Male Wistar rats (about 200 […]) were starved for 24 hours and deprived of water for 18 hours prior to the experiment. Absolute ethanol (1 ml/rat) was given orally to rats one hour after p.o. administration of the test compounds. One hour later, animals were sacrificed for the measurement of gastric lesions (mm^2).

A short description of data set [4]: Acute toxicity LD50 iv. To be noted: in vivo, species not given.
The mark [5] stands for this setting: Rattus norvegicus, po, 4 h; p.o. 1 hour before pylorus ligation; gastric juice collected four hours later; total acid output; read-out: 2)Anti-secretion 4hr. shay rat ED50 (mg/kg p.o.).
The mark [6] stands for this setting: po, 1 h, p.o., absolute ethanol (1 ml/rat) orally one hour after test compound; gastric lesions measured one hour later; read-out: 3)Cytopro-tection ethanol ulcer rat ED50(mg/kg p.o.).

Where a name gives a salt, the structure may show the parent alone. Some results are limits rather than exact numbers.

T1 sequence (P47747 whole entry): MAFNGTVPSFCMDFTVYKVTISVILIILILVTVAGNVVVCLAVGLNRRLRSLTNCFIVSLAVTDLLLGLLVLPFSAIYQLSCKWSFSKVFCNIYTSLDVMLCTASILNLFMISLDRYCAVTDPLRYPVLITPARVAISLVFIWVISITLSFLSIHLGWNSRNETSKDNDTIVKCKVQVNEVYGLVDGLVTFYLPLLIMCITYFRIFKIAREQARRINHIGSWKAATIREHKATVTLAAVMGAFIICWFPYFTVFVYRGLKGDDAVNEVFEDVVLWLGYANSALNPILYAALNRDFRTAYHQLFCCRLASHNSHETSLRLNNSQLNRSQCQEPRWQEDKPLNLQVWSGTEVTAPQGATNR

For the molecule `C=C(C)Cc1c(C)[nH]c(NCCCOc2cccc(CN3CCCC(C)C3)c2)nc1=O` (centres unmarked) [Example 31, 6-Methyl-2-[3-[m-(3-methylpiperidinomethyl)pheno- : xy]propylamino]-5-(2-methyl-2-propenyl)-4(lH)-pyrimidone], the IC50 in data set [1] was 0.29 µM. For the same molecule, the figures for the ED50 in data set [2] (setting [5]) and in data set [3] (setting [6]) were 30.1 mg/kg and 13.6 mg/kg, respectively.

Take `CC(=O)OCC(=O)NCCCOc1cccc(CN2CCCCC2)c1` [TZU-0460, N-[3-(3-(1-piperi-dinylmethyl)phenoxy]propyl]acetoxyacetamide hydrochloride, reference compound]: the IC50 in data set [1] is 0.37 µM. The ED50 in data set [2] (Rattus norvegicus, po, 4 h, read-out: 2)Anti-secretion 4hr. shay rat ED50 (mg/kg p.o.)) was 35.1 mg/kg; in data set [3] (Rattus norvegicus, po, 1 h, read-out: 3)Cytopro-tection ethanol ulcer rat ED50(mg/kg p.o.)), 46.4 mg/kg.

For the molecule `CC=CCc1c(C)[nH]c(NCCCOc2cccc(CN3CCCC3)c2)nc1=O` [Example 14, 5-(2-Butenyl)-6-methyl-2-[3-[m-(pyrrolidinylmethyl)-phenoxy]propylamino]-4(1H)-pyrimidone], in data set [1], the IC50 was 0.82 µM. Further, the results for the ED50 in data set [2] (setting [5]) and in data set [3] (setting [6]) were 9.9 mg/kg and 41.4 mg/kg, respectively.

Consider `CCCc1c(C)[nH]c(NCCCOc2cccc(CN3CCCCC3)c2)nc1=O` [Example 7, 6-Methyl-2-[3-[m-(piperidinomethyl)phenoxy]propylamino]-5-propyl-4(lH)-pyrimidone], for which the IC50 in data set [1] was 0.51 µM. In addition, the ED50 was 6.1 mg/kg in data set [2] (setting [5]) and 6.6 mg/kg in data set [3] (setting [6]).

Regarding `CC=CCc1c(C)[nH]c(NCCCOc2cccc(CN3CCCC(C)C3)c2)nc1=O` (centres unmarked) [Example 12, 5-(2-Butenyl)-6-methyl-2-[3-[m-(3-methylpiperidino-methyl)phenoxy]propylamino]-4(1H)-pyrimidone], the IC50 in data set [1] was found to be 0.61 µM. Besides, the ED50 in data set [2] (setting [5]) stood at 16.4 mg/kg; in data set [3] (setting [6]), 6.7 mg/kg. Moreover, the median lethal dose (LD50) (commonly the dose expected to kill half of the subjects tested) in data set [4] stood at 42.5 mg/kg.

Turning to `CC(C)=CCc1c(C)[nH]c(NCCCOc2cccc(CN3CCCCC3)c2)nc1=O` [Example 26, 6-methyl-5-(3-methyl-2-butenyl)-2-[3-[m-(piperidinomethyl)phenoxy]propylamino]-4(1H)-pyrimidone], the IC50 in data set [1] was determined as 0.36 µM. Also, the ED50 in data set [2] (setting [5]) turned out to be 5.2 mg/kg; in data set [3] (setting [6]), 20.5 mg/kg.

Turning to `C=CCc1c(C)[nH]c(NCCCOc2cccc(CN3CCCC(C)C3)c2)nc1=O` (centres unmarked) [Example 30, 5-(2-Propenyl)-6-me thyl-2-[3-[m-(3-methylpiperidi-nomethyl)phenoxy]propylamino]-4(lH)-pyrimidone], the IC50 in data set [1] was determined as 0.17 µM. Moreover, the ED50 in data set [2] (setting [5]) was 18 mg/kg; in data set [3] (setting [6]) it was 17 mg/kg.

Consider `CCCCc1c(C)[nH]c(NCCCOc2cccc(CN3CCCCC3)c2)nc1=O` [Example 4, 5-butyl-6-methyl-2-L3-[m-(piperidinomethyl)phenoxy]propylamino]-4(1H)-pyrimidone dihydrochloride], for which the IC50 in data set [1] amounted to 0.42 µM. For the same molecule, the ED50 turned out to be 6.4 mg/kg in data set [2] (setting [5]) and 5.8 mg/kg in data set [3] (setting [6]). In data set [4], this molecule showed an LD50 of 61.1 mg/kg.

On to `CCCCCCCc1c(C)[nH]c(NCCCOc2cccc(CN3CCCCC3)c2)nc1=O` [Example 1, 5-heptyl-6-methyl-2-[3-[m-(piperidinomethyl)phenoxy]-propylamino]-4(lH)-pyrimidone di-hydrochloride], for which, in data set [1], the IC50 is over 1 µM. Moreover, the ED50 in data set [2] (setting [5]) is 2.6 mg/kg; in data set [3] (setting [6]), 6 mg/kg.

For the molecule `CCCCCc1c(CC)[nH]c(NCCCOc2cccc(CN3CCCCC3)c2)nc1=O` [Example 5, 6-Ethyl-5-pentyl-2-f3-[m-(piperidinomethyl)phenoxy]-propylamino]-4(lH)-pyrimidone dihydrochloride-dihydrate], the IC50 in data set [1] was 8.9 µM. For the same molecule, the ED50 in data set [2] (setting [5]) came to 19 mg/kg; in data set [3] (setting [6]), 9.6 mg/kg.

With `C#CCc1c(C)[nH]c(NCCCOc2cccc(CN3CCCCC3)c2)nc1=O` [Example 9], in data set [1], the IC50 was 0.21 µM. In addition, the ED50 came out at 3.1 mg/kg in data set [2] (setting [5]) and 23.3 mg/kg in data set [3] (setting [6]).

For `CCSCCc1c(C)[nH]c(NCCCOc2cccc(CN3CCCCC3)c2)nc1=O` [Example 15, 5-(2-Ethylthioethyl)-6-methyl-2-[3-[m-(piperidinomethyl)phenoxy]propylamino]-4(lH)-pyrimidone], the IC50 in data set [1] is 0.4 µM. Moreover, the ED50 in data set [2] (setting [5]) worked out at 10.9 mg/kg; in data set [3] (setting [6]), 25.4 mg/kg.
